Measured values from US7314878B2, “Piperazine benzothiazoles as agents for the treatment of cerebral ischemic disorders or CNS disorders” (Laboratories Serono SA, priority 2002, dated 2008).
Read-outs that look alike come from different tables or passages of the source.

Columns and labels:
[1] = system: neuronal death in CA1/CA2 subfields of the hippocampus; experiment: Global ischemia in gerbils (bilateral carotid occlusion); type: in vivo; settings: 40 mg per kg ip, 15 min, 24 h and 48 h after reperfusion; gerbil
From the text: b) Global Ischemia in Gerbils
The ability of the JNK inhibitors described in formula I to protect cell death during a stroke event may be assessed using the following protocol:
The gerbil bilateral carotid occlusion is a well-described animal model of acute ischemic stroke and involves relatively easy surgical techniques.
The neuronal degeneration in the hippocampus develops over several days and is often referred as “delayed neuronal death”. In addition, the neurodegeneration observed histologically is obvious and easily quantified (11). Furthermore, the histopathology seen in the gerbil is similar to that observed in the hippocampal CA1 region of the human brain following a cardiac arrest. Behavior observations, such as memory tests, could even be performed in the case of gerbils. This kind of tests for appreciation of the degree of recovery is not easily manageable in other models such as in rat whose learning abilities are much poorer (12).
The neuroprotective effect according to formula I to protect may be assessed using-the gerbil global ischemia model and such a protocol: […]

[2] = Assessment of the BBB passage: brain and plasma sampling; type: in vivo, Sprague Dawley rats; settings: rat, i.v. 10 mg/kg; for concentration at 0.25 h / concentration at 0.5 h / concentration at 1 h: pooled n = 2
From the text: c) Assessment of the BBB Passage: Brain and Plasma Sampling
The compounds of the present invention are useful in the treatment and/or prophylaxis of cerebral ischemic disorders or CNS disorders. Specifically, the compounds of the present invention show a good capacity to cross the blood-brain barrier (EBB). The BBB passing capacity of the compounds according to formulae I or II may be assessed using the below protocols. The objective of this assay is to quantify the amount of the test compounds according to formulae I or II in the brain of rats following i.v. administration.
Six male Crl:CD(SD)Br Sprague Dawley rats (about 8 weeks old and having a weight of about 300 g) were divided into the 3 following groups:
2 animals for i.v. administration (10 mg/kg of test compound of formula I in 0.9% NaCl for injection). The test compound is administered by single dose (dose regimen). The sampling is performed at 0.25 h after sacrifice.
2 animals for i.v. administration (10 mg/kg of test compound of formula I in 0.9% NaCl for injection). The test compound is administered by single dose (dose regimen). The sampling is performed at 0.5 h after sacrifice.
2 animals for i.v. administration (10 mg/kg of test compound of formula I in 0.9% NaCl for injection). The test compound is administered by single dose (dose regimen). The sampling is performed at 1 h after sacrifice.
At each scheduled killing time, the animals of the corresponding group are deeply anaesthetised with diethyl ether. The blood for the corresponding blood samples is collected into heparinised tubes and centrifuged to remove the blood cells thus providing plasma. Plasma samples obtained at each sampling time (i.e. at t=0.25 h, 0.5 h, 1 h) from the rats of each group after administration of the test compound of formula (I) are pooled in order to obtain 1 pooled sample per sampling time per group. Rats are then sacrificed by exsanguination.
For the-brain sampling, the whole brain (cerebrum and cerebellum) of the sacrificed animals is removed. Brain from two animals per sampling time (i.e. at t=0.25 h, 0.5 h, 1 h after administration) are pooled in order to obtain one pooled sample per sampling time. Each pooled sample is homogenized in a solvent mixture (acetonitrile/methanol/dimethyl-sulfoxide, 50:48:2 by volume) centrifuged and the supernatant analyzed for the test compound.
Concentrations in plasma samples and brain homogenates are quantified according to an analytical HPLC-MS/MS method, properly developed for the compound.
The test compound used in this assay is the one set out in Example 1 (i.e. 1,3-benzothiazol-2-yl[2-({4-[(4-methylpiperazin-1-yl)methyl]-benzyl}oxy)pyrimidin-4-yl]acetonitrile.

CN1CCN(Cc2ccc(COc3nccc(C(C#N)c4nc5ccccc5s4)n3)cc2)CC1 (centres unmarked) [Example 1, 1,3-benzothiazol-2-yl[2-({4-[(4-methylpiperazin-1-yl)methyl]-benzyl}-oxy)pyrimidin-4yl]acetonitrile]
inhibition of neuronal death [1]: about 60%
concentration at 0.25 h ([2]; male, Crl:CD(SD)Br Sprague Dawley, brain, iv, 0.25 h, read-out: Brain concentration): 919 ng/g
concentration at 0.5 h ([2]; male, Crl:CD(SD)Br Sprague Dawley, brain, iv, 0.5 h, read-out: Brain concentration): 657 ng/g
concentration at 1 h ([2]; male, Crl:CD(SD)Br Sprague Dawley, brain, iv, 1 h, read-out: Brain concentration): 679 ng/g
Kp at 0.25 h ([2]; male, Crl:CD(SD)Br Sprague Dawley, brain/plasma, iv, 0.25 h, read-out: Brain/Plasma ratio): 0.32
Kp at 0.5 h ([2]; male, Crl:CD(SD)Br Sprague Dawley, brain/plasma, iv, 0.5 h, read-out: Brain/Plasma ratio): 0.3
Kp at 1 h ([2]; male, Crl:CD(SD)Br Sprague Dawley, brain/plasma, iv, 1 h, read-out: Brain/Plasma ratio): 0.34
concentration at 0.25 h ([2]; male, Crl:CD(SD)Br Sprague Dawley, plasma, iv, 0.25 h, read-out: Plasma concentration): 2840 ng/mL
concentration at 0.5 h ([2]; male, Crl:CD(SD)Br Sprague Dawley, plasma, iv, 0.5 h, read-out: Plasma concentration): 2160 ng/mL
concentration at 1 h ([2]; male, Crl:CD(SD)Br Sprague Dawley, plasma, iv, 1 h, read-out: Plasma concentration): 1980 ng/mL
passage into the brain ([2]; 0.25-1 h): considerable and sustained passage of the test compound into the brain
